Measurements: US20210255193A1, “LYSINE REACTIVE PROBES AND USES THEREOF” (The Scripps Research Institute, priority 2017, published 2021)

Experiments:
Test in all cases: competitive isoTOP-ABPP
Assay type in all cases: binding
[1] = biological target: T1, ETFA Electron transfer flavoprotein subunit alpha, mitochondrial (Homo sapiens, UniProt P13804); details: for isoTOP-ABPP ratio (R) at liganded lysine P13804_K139: 50 uM, in vitro, sol, 231
T1 construct: isoTOP-ABPP experiments performed in cell lysates (in vitro); endogenous in cells; host or cells: soluble proteome of human cancer cell lines (MDA-MB-231; Ramos and Jurkat also prepared)
T1 sequence (P13804 20-333): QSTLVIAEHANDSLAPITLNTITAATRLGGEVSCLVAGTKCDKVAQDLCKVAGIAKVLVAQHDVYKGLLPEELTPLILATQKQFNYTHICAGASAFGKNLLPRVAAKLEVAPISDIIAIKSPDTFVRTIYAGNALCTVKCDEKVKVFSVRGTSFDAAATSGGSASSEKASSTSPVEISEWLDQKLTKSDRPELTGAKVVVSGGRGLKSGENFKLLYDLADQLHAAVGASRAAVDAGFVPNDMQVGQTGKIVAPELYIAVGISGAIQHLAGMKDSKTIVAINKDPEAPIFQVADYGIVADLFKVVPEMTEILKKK
T1 sequence (P38117 2-255 partner limits assumed): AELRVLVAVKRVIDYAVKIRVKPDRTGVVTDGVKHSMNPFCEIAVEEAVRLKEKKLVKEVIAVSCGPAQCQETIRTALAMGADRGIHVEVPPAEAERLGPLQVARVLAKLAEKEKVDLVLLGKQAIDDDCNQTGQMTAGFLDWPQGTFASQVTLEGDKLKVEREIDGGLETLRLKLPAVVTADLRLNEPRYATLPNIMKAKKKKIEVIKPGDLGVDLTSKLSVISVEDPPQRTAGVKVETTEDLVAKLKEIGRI
In short: (§1)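 Probe: STP-alkyne, 0.1 mM, 1 h RT, after fragment pretreatment of lysate (esters 50 μM; guanidinylators 100 μM). Tags: light = compound, heavy = DMSO, via CuAAC. Replicates averaged if SD <60% of mean; otherwise lowest ratio used when any R <4.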

[2] = biological target: T2, LDHB L-lactate dehydrogenase B chain (Homo sapiens, UniProt P07195)
T2 construct: isoTOP-ABPP experiments performed in cell lysates (in vitro); endogenous in cells; host or cells: MDA-MB-231 soluble lysate
In short: as §1

[3] = biological target: T3, SLC25A5 ADP/ATP translocase 2 (Homo sapiens, UniProt P05141); details: for isoTOP-ABPP ratio (R) at liganded lysine P05141_K23: 50 uM, in vitro, sol, 231
T3 construct: isoTOP-ABPP experiments performed in cell lysates (in vitro); endogenous in cells; host or cells: MDA-MB-231 soluble lysate
T3 sequence (P05141 1-298): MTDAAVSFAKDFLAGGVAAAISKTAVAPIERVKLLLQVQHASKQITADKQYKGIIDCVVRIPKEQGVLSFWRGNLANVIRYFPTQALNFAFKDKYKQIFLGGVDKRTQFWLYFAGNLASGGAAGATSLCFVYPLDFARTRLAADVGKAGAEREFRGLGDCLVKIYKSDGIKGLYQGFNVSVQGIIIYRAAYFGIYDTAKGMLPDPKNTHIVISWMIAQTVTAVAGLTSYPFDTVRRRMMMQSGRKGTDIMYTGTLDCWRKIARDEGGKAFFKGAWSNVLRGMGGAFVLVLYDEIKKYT
In short: as §1

DTYMK Thymidylate kinase = biological target: T4, DTYMK Thymidylate kinase (Homo sapiens, UniProt P23919); details: 50 uM, in vitro, sol, 231
T4 construct: isoTOP-ABPP experiments performed in cell lysates (in vitro); endogenous in cells; host or cells: soluble proteome of human cancer cell lines (MDA-MB-231; Ramos and Jurkat also prepared)
T4 sequence (P23919 1-212): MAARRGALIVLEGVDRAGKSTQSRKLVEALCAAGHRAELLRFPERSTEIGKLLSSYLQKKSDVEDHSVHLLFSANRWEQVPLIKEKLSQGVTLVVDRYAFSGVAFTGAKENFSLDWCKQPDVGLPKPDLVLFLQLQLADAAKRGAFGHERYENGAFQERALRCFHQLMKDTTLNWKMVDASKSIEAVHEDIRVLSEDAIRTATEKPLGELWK
In short: as §1

FAM136A Protein FAM136A = biological target: T5, FAM136A Protein FAM136A (Homo sapiens, UniProt Q96C01); details: for isoTOP-ABPP ratio (R) at liganded lysine Q96C01_K99: 50 uM, in vitro, sol, 231
T5 construct: isoTOP-ABPP experiments performed in cell lysates (in vitro); endogenous in cells; host or cells: soluble proteome of human cancer cell lines (MDA-MB-231; Ramos and Jurkat also prepared)
In short: as §1

T5 sequence (Q96C01 whole entry): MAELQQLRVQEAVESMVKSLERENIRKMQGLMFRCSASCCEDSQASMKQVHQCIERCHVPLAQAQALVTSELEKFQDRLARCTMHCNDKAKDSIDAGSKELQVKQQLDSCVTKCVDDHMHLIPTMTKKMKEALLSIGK
T2 sequence (P07195 whole entry): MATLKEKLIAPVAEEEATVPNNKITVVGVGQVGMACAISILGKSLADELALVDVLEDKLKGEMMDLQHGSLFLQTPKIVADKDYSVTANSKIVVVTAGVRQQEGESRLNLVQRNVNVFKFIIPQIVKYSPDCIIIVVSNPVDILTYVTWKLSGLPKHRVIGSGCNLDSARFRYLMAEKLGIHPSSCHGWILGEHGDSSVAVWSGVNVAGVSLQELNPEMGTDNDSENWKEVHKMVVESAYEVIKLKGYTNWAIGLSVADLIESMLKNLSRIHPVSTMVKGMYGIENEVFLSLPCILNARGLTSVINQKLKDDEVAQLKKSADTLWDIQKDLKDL

With `O=C(Oc1ccc([N+](=O)[O-])cc1[N+](=O)[O-])c1ccc2ccccc2n1` [fragment 35, 2,4-Dinitrophenyl quinoline-2-carboxylate] the “isoTOP-ABPP ratio (R) at liganded lysine P13804_K139” value [1] was 0.9, the “isoTOP-ABPP ratio (R) at liganded lysine P07195_K82” value ([2]; 50 uM, in vitro, sol, 231) was 0.6 and the “isoTOP-ABPP ratio (R) at liganded lysine P05141_K23” value [3] was 1.1. The “isoTOP-ABPP ratio (R) at liganded lysine P23919_K118” value (DTYMK Thymidylate kinase) was 0.9.
For `O=C(CCc1coc2cc(F)ccc2c1=O)Oc1ccc([N+](=O)[O-])cc1[N+](=O)[O-]` [fragment 36, 2,4-Dinitrophenyl 3-(7-fluoro-4-oxo-4H-chromen-3-yl)propanoate], the “isoTOP-ABPP ratio (R) at liganded lysine P13804_K139” value [1] was 0.7, the “isoTOP-ABPP ratio (R) at liganded lysine P07195_K82” value ([2]; 50 uM, in vitro, sol, 231) was 0.9 and the “isoTOP-ABPP ratio (R) at liganded lysine P07195_K244” value ([2]; 50 uM, in vitro, sol, 231) was 20.0. For the same compound, the “isoTOP-ABPP ratio (R) at liganded lysine P05141_K23” value [3] was 1.1 and the “isoTOP-ABPP ratio (R) at liganded lysine Q96C01_K99” value (FAM136A Protein FAM136A) was 0.8.
With `O=C(CC12CC3CC(CC(C3)C1)C2)Oc1ccc([N+](=O)[O-])cc1[N+](=O)[O-]` [fragment 38, 2,4-Dinitrophenyl 2-(adamantan-1-yl)acetate] the “isoTOP-ABPP ratio (R) at liganded lysine P07195_K82” value ([2]; 50 uM, in vitro, sol, 231) was 0.7 and the “isoTOP-ABPP ratio (R) at liganded lysine P05141_K23” value [3] was 1.1.
In the case of `O=C(Oc1ccc([N+](=O)[O-])cc1[N+](=O)[O-])c1ccccc1Nc1cccc(C(F)(F)F)c1` [fragment 40, 2,4-Dinitrophenyl 2-((3-(trifluoromethyl)phenyl)amino)benzoate], the “isoTOP-ABPP ratio (R) at liganded lysine P13804_K139” value [1] is reported as 0.9, the “isoTOP-ABPP ratio (R) at liganded lysine P07195_K82” value ([2]; 50 uM, in vitro, sol, 231) is reported as 20.0 and the “isoTOP-ABPP ratio (R) at liganded lysine P05141_K23” value [3] is reported as 0.8. The “isoTOP-ABPP ratio (R) at liganded lysine Q96C01_K99” value (FAM136A Protein FAM136A) was 0.8.
In the case of `O=C(Oc1ccc([N+](=O)[O-])cc1[N+](=O)[O-])C(c1ccccc1)(c1ccccc1)c1ccccc1` [fragment 42, 2,4-Dinitrophenyl 2,2,2-triphenylacetate], the “isoTOP-ABPP ratio (R) at liganded lysine P07195_K82” value ([2]; 50 uM, in vitro, sol, 231) is reported as 20.0, the “isoTOP-ABPP ratio (R) at liganded lysine P05141_K23” value [3] is reported as 1.1 and the “isoTOP-ABPP ratio (R) at liganded lysine Q96C01_K99” value (FAM136A Protein FAM136A) is reported as 0.9.
`CC(=O)Oc1ccc([N+](=O)[O-])cc1[N+](=O)[O-]` [fragment 43, 2,4-Dinitrophenyl acetate] was tested, and the “isoTOP-ABPP ratio (R) at liganded lysine P05141_K23” value [3] was 0.9 and the “isoTOP-ABPP ratio (R) at liganded lysine Q96C01_K99” value (FAM136A Protein FAM136A) was 1.1.
In the case of `N#Cc1ccc(C(=O)Oc2ccc([N+](=O)[O-])cc2[N+](=O)[O-])cc1` [fragment 44, 2,4-Dinitrophenyl 4-cyanobenzoate], the “isoTOP-ABPP ratio, lysine P13804_K139” value ([1]; 50 uM_231_sol_in vitro) is reported as 0.9, the “isoTOP-ABPP ratio, lysine P07195_K82” value ([2]; 50 uM_231_sol_in vitro) is reported as 1.0 and the “isoTOP-ABPP ratio, lysine P07195_K244” value ([2]; 50 uM_231_sol_in vitro) is reported as 1.1. The “isoTOP-ABPP ratio, lysine P05141_K23” value ([3]; 50 uM_231_sol_in vitro) was 1.1.
With `O=C(CCc1ccc2c(c1)OCO2)Oc1ccc([N+](=O)[O-])cc1[N+](=O)[O-]` [fragment 45, 2,4-Dinitrophenyl 3-(benzo[d][1,3]dioxol-5-yl)propanoate] the “isoTOP-ABPP ratio, lysine P13804_K139” value ([1]; 50 uM_231_sol_in vitro) was 1.0, the “isoTOP-ABPP ratio, lysine P05141_K23” value ([3]; 50 uM_231_sol_in vitro) was 1.2 and the “isoTOP-ABPP ratio, lysine Q96C01_K99” value (FAM136A Protein FAM136A; 50 uM_231_sol_in vitro) was 1.0.
For `O=C(ON1C(=O)CCC1=O)c1cc(C(F)(F)F)cc(C(F)(F)F)c1` [fragment 46, 3,5-Bis(trifluoromethyl)benzoic acid NHS ester], the “isoTOP-ABPP ratio, lysine P13804_K139” value ([1]; 50 uM_231_sol_in vitro) was 0.9, the “isoTOP-ABPP ratio, lysine P07195_K82” value ([2]; 50 uM_231_sol_in vitro) was 0.7 and the “isoTOP-ABPP ratio, lysine P07195_K244” value ([2]; 50 uM_231_sol_in vitro) was 0.8. The “isoTOP-ABPP ratio, lysine P05141_K23” value ([3]; 50 uM_231_sol_in vitro) was 0.9 and the “isoTOP-ABPP ratio, lysine Q96C01_K99” value (FAM136A Protein FAM136A; 50 uM_231_sol_in vitro) was 0.6.
In the case of `COC(=O)NC(=NC(=O)OCC1c2ccccc2-c2ccccc21)n1cccn1` [fragment 49, N-Methoxycarbonyl-N′-9-fluorenylmethoxycarbonyl-pyrazole-1-carboxamidine], the “isoTOP-ABPP ratio, lysine Q96C01_K99” value (FAM136A Protein FAM136A; 100 uM_231_sol_in vitro) is reported as 1.3.
With `CC(C)(C)OC(=O)N=C(NC(=O)OC(C)(C)C)n1cccn1` [fragment 50, reference compound] the “isoTOP-ABPP ratio, lysine P13804_K139” value ([1]; 100 uM_231_sol_in vitro) was 1.1, the “isoTOP-ABPP ratio, lysine P07195_K82” value ([2]; 100 uM_231_sol_in vitro) was 0.9 and the “isoTOP-ABPP ratio, lysine P07195_K244” value ([2]; 100 uM_231_sol_in vitro) was 1.1. For the same compound, the “isoTOP-ABPP ratio, lysine P05141_K23” value ([3]; 100 uM_231_sol_in vitro) was 12.6.
For `NC(=O)c1cc(C(F)(F)F)cc(C(F)(F)F)c1` [fragment 51, reference compound], the “isoTOP-ABPP ratio, lysine P13804_K139” value ([1]; 50 uM_231_sol_in vitro) was 1.0.
